Laboratory results taken from BindingDB's records for doi:10.1021/jm0303352 (National Center For Genetic Engineering and Biotechnology …, 2004).

Columns and labels:
[1] = In vitro antimalarial activity against Plasmodium falciparum TM4/8.2 wtDHFR
[2] = In vitro antimalarial activity against Plasmodium falciparum K1CB1 double DHFR mutant (C59R/S108N)
[3] = In vitro antimalarial activity relative to trimethoprim against Plasmodium falciparum TM4/8.2 wtDHFR
[4] = In vitro antimalarial activity against Plasmodium falciparum Csl-2 triple DHFR mutant (C59R/S108N/I164L)/
[5] = In vitro antimalarial activity against Plasmodium falciparum Vl/S with quadruple DHFR mutant (N51I/C59R/S108N/I164L)
[6] = In vitro antimalarial activity against Plasmodium falciparum K1CB1 double DHFR mutation (C59R/S108N) relative to trimethoprim
[7] = In vitro antimalarial activity against Plasmodium falciparum Csl-2 triple DHFR mutant (C59R/S108N/I164L) relative to trimethoprim
[8] = In vitro antimalarial activity relative to trimethoprim against Plasmodium falciparum Vl/S with quadruple DHFR mutant (N51I/C59R/S108N/I164L)

Compound | IC50 [1] [µM] | IC50 [2] [µM] | IC50 ratio [3] | IC50 [4] [µM] | IC50 [5] [µM] | IC50 ratio [6] | IC50 ratio [7] | IC50 ratio [8]
COc1ccc(Cc2cnc(N)nc2N)cc1OCc1ccccc1 [5-(3-Benzyloxy-4-methoxy-benzyl)-pyrimidine-2,4-diamine] | 17.5 | 3.83 | 2.62 | 5.73 | > 50 | 0.03 | 0.05 | 0.25
COc1cc(Cc2cnc(N)nc2N)ccc1OCc1cc(OC)c(OC)c(OC)c1 [5-[3-Methoxy-4-(3,4,5-trimethoxy-benzyloxy)-benzyl]-pyrimidine-2,4-diamine] | 0.31 | 27.8 | 0.05 | 30.6 | 26.1 | 0.13 | 0.26 | 
COc1cc(Cc2c(C)nc(N)nc2N)ccc1OCc1ccccc1 [5-(4-(benzyloxy)-3-methoxybenzyl)-6-methylpyrimidine-2,4-diamine] | 6.84 | 25.2 | 1.03 | 2.85 | 4.82 | 0.18 | 0.02 | 
CCc1nc(N)nc(N)c1Cc1ccc(OCc2ccccc2)c(OC)c1 [5-(4-Benzyloxy-3-methoxy-benzyl)-6-ethyl-pyrimidine-2,4-diamine] | 5.06 | 16.3 | 0.76 | 5.37 | 11.3 | 0.12 | 0.05 | 
